Source: paper PMC12951430, “Modular Vinyl Phosphonamidates for Cysteine-Directed Protein Targeting” (Journal of the American Chemical Society, 2026)

How the values were obtained:
[1] = unprotected lysine 10 equiv, 5 days, pH 7.4 and pH 8.5, room temperature
Procedure: To this end, unprotected lysine (10 equiv) was incubated with 1a for 5 days (pH 7.4 and pH 8.5, room temperature).
The assay was performed analogously to glutathion reactivity using L -lysine. In addition to pH 7.4
The reaction was monitored for a total
of 5 days and aliquotes were taken at indicated timepoints and analyzed via UPLC -UV/MS.

BTK in RAMOS cells = biological target: T1, BTK in RAMOS cells (Homo sapiens, UniProt Q06187); test: Gel-based ABPP of BTK probes in RAMOS cells; type: cell-based; details: 250 nM, 1 h, 37 °C
T1 construct: we performed a gel-based ABPP experiment using RAMOS cells; host or cells: RAMOS
Text: Motivated by these promising results, we wanted to extend the scope toward a different class of kinase inhibitors. […] Inspired by these findings, we synthesized a series of VPA probes based on the pyrazolo[3,4-d]-pyrimidine scaffold (8–11, Figure a), each harboring a different aromatic linker. To compare their reactivity and selectivity for BTK, we performed a gel-based ABPP experiment using RAMOS cells. […] In contrast, for all four PA probes, only one intense band was obtained at the same height as BTK. […] Analogously to Afatinib-derived probe 4a, we wanted to investigate whether one stereoisomer might show preferential binding.
(b) Comparison of the in-cell reactivity profiles of BTK probes 8–12 in RAMOS cells (250 nM, 1 h, 37 °C) analyzed by gel-based ABPP. […]
Fluorescence was monitored over 4 h at 30 °C every 60 seconds (λex = 360 nm and λem = 492 nm).
Background‑subtracted fluorescence intensity (RFU) was plotted against time (s), and data were fitted to a single‑phase association model: […]
4.7 In-cell protein labeling and in -gel fluorescence analysis […]
Afterwards, the precipitate was redissolved in 40 µl 8 M urea (100 mM Tris, pH 8), 8 µl Laemmli buffer were added and the samples were denatured at 95 °C for 5 minutes. Proteins were seperated via SDS - PAGE (12% or 4-20% acrylamide gels) and analyzed on a Gel Doc XR+ (Bio-Rad, USA). […]

RAMOS cells = test: Streptavidin pull-down with BTK probes in RAMOS cells (LFQ); type: cell-based, human; details: 10 μM probe, log2-fold change >2.5, p <0.01
Procedure: (b) Comparison of the in-cell reactivity profiles of BTK probes 8–12 in RAMOS cells (250 nM, 1 h, 37 °C) analyzed by gel-based ABPP. (c) Superposition of the two stereoisomers of 9 covalently docked onto the crystal structure of BTK (PDB: 5P9J).
To verify the identity of the protein(s) labeled by our best-performing probe 9, we performed in-cell labeling followed by streptavidin pull-down coupled to LC-MS/MS analysis.
4.8 In-cell protein labeling and s ample preparation for proteomic pull-down Cells were cultured, treated and lysed as described in 4.4. Lysates (approx. 200 μg of protein each) […]
Afterwards, the samples we re processed according to a procedure published by Becker et al. 10: A total of 50 μl of mixed hydrophobic and hydrophilic carboxylate -coated magnetic beads (1:1, prewashed with PBS; Seramag™, Cytavia) was added to the click reaction mixture followed by 600 μl of absolute ethanol to precipitate the proteins. Beads were washed thrice with of 80% ethanol and proteins were eluted by two sequential washes of 0.2% SDS in PBS. […]
The obtained raw-data was analyzed using FragPipe (v20 to 21) using the built-in LFQ-MBR workflow using the whole human proteome as search space and applying the following MSFragger11 settings: […]

T1 sequence (Q06187 whole entry): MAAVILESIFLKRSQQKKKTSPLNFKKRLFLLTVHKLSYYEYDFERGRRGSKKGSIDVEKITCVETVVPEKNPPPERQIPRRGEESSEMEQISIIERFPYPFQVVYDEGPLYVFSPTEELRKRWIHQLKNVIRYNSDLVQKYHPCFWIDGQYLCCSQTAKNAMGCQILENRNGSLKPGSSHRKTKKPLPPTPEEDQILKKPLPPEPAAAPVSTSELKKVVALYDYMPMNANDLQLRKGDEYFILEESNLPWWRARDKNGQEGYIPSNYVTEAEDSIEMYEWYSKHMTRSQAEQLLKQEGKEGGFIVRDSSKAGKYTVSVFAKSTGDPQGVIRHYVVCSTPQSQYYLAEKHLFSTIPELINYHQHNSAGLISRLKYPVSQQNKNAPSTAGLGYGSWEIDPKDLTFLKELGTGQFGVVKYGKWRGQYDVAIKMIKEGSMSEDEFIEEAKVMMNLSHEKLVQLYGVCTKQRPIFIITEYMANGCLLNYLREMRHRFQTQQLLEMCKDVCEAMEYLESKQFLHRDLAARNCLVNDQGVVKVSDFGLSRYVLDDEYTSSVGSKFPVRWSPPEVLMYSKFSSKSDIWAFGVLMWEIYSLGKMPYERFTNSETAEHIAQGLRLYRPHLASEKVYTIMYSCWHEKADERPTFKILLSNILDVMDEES

| SMILES | reactivity toward L-lysine / buffer stability [1] | in-cell reactivity profile (gel bands) (BTK in RAMOS cells) | off-targets significantly enriched (RAMOS cells) |
| --- | --- | --- | --- |
| C=CP(=O)(Nc1ccccc1)OCC (stereo not drawn) [1a] | no reaction or degradation products were detected | – | – |
| C#Cc1cccc(Oc2ccc(-c3nn(C4CCCN(C(=O)C=C)C4)c4ncnc(N)c34)cc2)c1 (stereo not drawn) [compound 12, PF-06658607, reference compound] | – | additional prominent off-target band around 60 kDa | 73 |
